Here are results for two compounds from ChEMBL document CHEMBL1201862, “PubChem BioAssay data set” (2004).

Structures are written as SMILES. Activity calls are given as the source filed them. Rule as the data show it: actives have a measured IC50 and inactives only a lower limit.

What all share (type): functional
One assay has as its target T1, Caspase-3 (Homo sapiens, UniProt P42574).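 Also: Dose-response selectivity test against caspase-3 for candidate inhibitors of sentrin-specific proteases (SENPs).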
T1 sequence (P42574 whole entry): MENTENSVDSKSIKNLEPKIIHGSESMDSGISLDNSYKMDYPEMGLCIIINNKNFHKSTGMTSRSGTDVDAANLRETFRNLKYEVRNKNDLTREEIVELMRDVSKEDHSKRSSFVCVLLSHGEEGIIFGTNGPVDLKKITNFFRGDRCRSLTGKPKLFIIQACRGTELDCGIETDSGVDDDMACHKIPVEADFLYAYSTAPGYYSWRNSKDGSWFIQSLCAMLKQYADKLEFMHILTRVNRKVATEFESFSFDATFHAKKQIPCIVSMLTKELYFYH

Assay [1] deals with T2, Sentrin-specific protease 7 (Homo sapiens, UniProt Q9BQF6).
T2 sequence (Q9BQF6 whole entry): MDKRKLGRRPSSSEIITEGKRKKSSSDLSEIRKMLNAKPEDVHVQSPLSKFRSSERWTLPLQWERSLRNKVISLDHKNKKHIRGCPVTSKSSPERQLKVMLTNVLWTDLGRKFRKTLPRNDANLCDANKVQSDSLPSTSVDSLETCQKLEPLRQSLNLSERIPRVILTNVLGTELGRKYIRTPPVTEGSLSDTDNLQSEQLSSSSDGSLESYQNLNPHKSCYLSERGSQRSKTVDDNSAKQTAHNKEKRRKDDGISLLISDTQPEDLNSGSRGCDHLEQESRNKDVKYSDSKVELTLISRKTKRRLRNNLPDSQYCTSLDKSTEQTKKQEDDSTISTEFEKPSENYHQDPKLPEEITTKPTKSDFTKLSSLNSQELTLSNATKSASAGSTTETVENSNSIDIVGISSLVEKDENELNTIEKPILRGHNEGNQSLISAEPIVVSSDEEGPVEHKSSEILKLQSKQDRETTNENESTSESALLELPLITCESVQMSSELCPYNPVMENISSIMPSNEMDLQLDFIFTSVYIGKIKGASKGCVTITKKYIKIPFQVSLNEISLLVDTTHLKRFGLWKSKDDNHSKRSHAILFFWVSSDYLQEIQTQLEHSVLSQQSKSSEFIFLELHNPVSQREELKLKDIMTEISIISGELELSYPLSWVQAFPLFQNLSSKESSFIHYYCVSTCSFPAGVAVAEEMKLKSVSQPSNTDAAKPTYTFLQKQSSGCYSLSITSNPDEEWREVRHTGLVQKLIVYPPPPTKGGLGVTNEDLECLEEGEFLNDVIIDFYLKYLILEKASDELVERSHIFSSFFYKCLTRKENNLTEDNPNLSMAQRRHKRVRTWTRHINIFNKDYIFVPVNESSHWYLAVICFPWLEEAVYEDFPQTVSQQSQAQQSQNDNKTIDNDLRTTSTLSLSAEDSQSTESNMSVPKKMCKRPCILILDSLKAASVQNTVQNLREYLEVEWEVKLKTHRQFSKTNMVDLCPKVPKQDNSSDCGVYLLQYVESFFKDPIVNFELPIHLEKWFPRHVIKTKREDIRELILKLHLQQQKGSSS

For assay [2], the target named is T3, Sentrin-specific protease 6 (Homo sapiens, UniProt Q9GZR1).
T3 sequence (Q9GZR1 whole entry): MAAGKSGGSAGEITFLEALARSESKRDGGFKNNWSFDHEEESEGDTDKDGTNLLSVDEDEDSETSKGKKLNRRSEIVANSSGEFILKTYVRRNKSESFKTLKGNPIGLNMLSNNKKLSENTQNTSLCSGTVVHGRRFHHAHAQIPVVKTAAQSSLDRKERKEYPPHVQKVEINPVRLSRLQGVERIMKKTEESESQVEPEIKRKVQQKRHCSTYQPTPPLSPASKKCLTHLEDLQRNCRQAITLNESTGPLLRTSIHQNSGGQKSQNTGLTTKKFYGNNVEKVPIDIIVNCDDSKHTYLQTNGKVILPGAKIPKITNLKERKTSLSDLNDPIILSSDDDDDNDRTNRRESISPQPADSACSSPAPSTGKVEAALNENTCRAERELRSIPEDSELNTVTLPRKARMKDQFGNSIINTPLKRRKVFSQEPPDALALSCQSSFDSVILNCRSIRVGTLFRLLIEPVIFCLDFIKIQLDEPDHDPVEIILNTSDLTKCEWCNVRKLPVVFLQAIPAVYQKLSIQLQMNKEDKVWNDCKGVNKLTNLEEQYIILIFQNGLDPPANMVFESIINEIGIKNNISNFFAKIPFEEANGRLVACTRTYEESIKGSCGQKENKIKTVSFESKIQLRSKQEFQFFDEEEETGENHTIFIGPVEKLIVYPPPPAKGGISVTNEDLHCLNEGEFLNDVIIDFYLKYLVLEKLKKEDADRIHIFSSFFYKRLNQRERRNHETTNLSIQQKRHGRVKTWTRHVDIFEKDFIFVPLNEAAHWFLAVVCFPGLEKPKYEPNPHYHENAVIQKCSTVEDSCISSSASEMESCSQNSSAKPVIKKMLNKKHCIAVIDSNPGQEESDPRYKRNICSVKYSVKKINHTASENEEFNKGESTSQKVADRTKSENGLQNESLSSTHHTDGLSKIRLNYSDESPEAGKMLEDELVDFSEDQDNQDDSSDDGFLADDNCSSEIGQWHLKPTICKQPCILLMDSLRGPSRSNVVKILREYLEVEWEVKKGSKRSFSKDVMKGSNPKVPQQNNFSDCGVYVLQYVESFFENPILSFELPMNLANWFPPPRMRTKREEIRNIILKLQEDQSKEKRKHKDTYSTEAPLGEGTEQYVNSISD

In assay [3] the target is T4, Sentrin-specific protease 8 (Homo sapiens, UniProt Q96LD8).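 Also: luminescence read-out of SENP8 inhibition, dose-response confirmation following an ultra-high-throughput screen.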
T4 sequence (Q96LD8 whole entry): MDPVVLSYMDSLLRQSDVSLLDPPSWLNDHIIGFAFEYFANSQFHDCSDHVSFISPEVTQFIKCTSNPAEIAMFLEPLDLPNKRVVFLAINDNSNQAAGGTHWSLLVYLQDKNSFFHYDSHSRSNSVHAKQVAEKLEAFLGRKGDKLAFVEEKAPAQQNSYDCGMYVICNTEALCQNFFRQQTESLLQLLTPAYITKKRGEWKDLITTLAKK

The target in assay [4] is T3, Sentrin-specific protease 6. The experiment in a line: SAR Analysis of small molecule inhibitors of Sentrin-specific protease 6 (SENP6) using a Luminescent assay. [Related pubchem assays (depositor defined):AID2582, AID2599].

Turning to `CCOC(=O)C1=C(COC(=O)c2ccc([N+](=O)[O-])s2)NC(=O)NC1C` (centres undefined), the IC50 at Caspase-3 was 8.13 µM (active); in assay [1], 6.1 µM (active); in assay [2], 4.48 µM (active); in assay [3], 3.57 µM (active).

As for `Oc1cccc(/C=N/Nc2cc(N3CCCC3)nc(N3CCCC3)n2)c1`, the IC50 on Caspase-3 was > 100 µM (inactive); in assay [1], 9.99 µM (active); in assay [2], 6.69 µM (active); in assay [3], 17.2 µM (active); in assay [4], 20.4 µM (active).

A word on the IC50: it is the concentration at which inhibition is half-maximal.
